Consider seven molecules from patent US4395969A (priority 1981, dated 1983).

A short description of series [1]: in vivo. The note with it: chinook salmon.
The test system of series [2] is threespine stickleback. More on the design: species or system Gasterosteus aculeatus. The note with it: in vivo.
Series [3] deals with threespine stickleback. On the set-up: species or system Gasterosteus aculeatus. Conditions: in vivo, 5760 min.
Series [4] relates to chinook salmon. Conditions: in vivo.
The test system of series [5] is sucker and stickleback. Conditions: in vivo.
In series [6] the test system is sucker and stickleback. The note with it: cited from earlier work.
For series [7], the system named is bridgelip sucker. On the set-up: species or system Catastomus columbianus. Conditions: in vivo.
The subject of series [8] is steelhead trout. Conditions: in vivo.
Series [9] has as its system salmonids.
Series [10] has as its system bridgelip sucker. Put plainly: Selectivity and safety indices of salmonids versus the bridgelip sucker. The class given is in vivo, Catastomus columbianus. Conditions: steelhead trout; 24 h. The source says: Delineation bioassays determined primarily the LC50 and LC100 of sucker and stickleback and the LC0 and LC50 of salmonids.
The statistical LC1, LC50, and LC99 were interpolated and/or extrapolated using probit graph paper to approximate the LC0, LC50, and LC100 when the latter set of values was not closely determined by single concentrations in a series.
The approximate LC50 and LC100 of the target fishes (threespine and brook sticklebacks and bridgelip and white suckers) are tabulated in Table 1. The 96-hour selectivity and safety indices of selected species of salmonids versus the three-spine stickleback are tabulated in Table 3.
Threespine stickleback, brook stickleback, bridgelip sucker, white sucker, chinook salmon, coho salmon, sockeye salmon, kokanee, Kamloops trout, cutthroat trout, and brook trout were treated with various concentrations of 2, 2, 2, 1-tetrachloroethyl diethyl phosphate and at various temperatures to determine approximate selectivity and safety indices. The approximate LC50 and LC100 of the target fishes (threespine and brook sticklebacks and bridgelip and white suckers) are tabulated in Table 5. The 96-hour selectivity and safety indices of selected species of salmonids versus the threespine stickleback are tabulated in Table 7.

The conditions of series [11]: published literature; cited from earlier work.
The subject of series [12] is carp. The note with it: used in ponds; cited from earlier work.

Where two headings read alike, the source gives them in different places.

As usually defined, the LC50 is the concentration lethal to half of the exposed cells or organisms. A high value points to lower toxicity.

As for `CCOP(=O)(OCC)OC(=C(Cl)Cl)P(=O)(OCC)OCC` [2,2-dichloro-1-diethyl phosphonovinyl diethyl phosphate], the results for the LC50 in [1] and in series [2] were 0.018 to 0.02 µg/mL and 0.008 µg/mL, respectively. Besides, the “Safety index (LC0/LC100)” value in series [3] is 0.9.

For `O=C(O)C(Cl)Cl` [dichloroacetic acid, reference compound], the mortality entry in [4] is “suffered no mortalities”.

`CCOP(=O)(OCC)OC(Cl)=C(Cl)Cl` [2,2,1-trichlorovinyl diethyl phosphate] registered an LC50 in series [1] of 0.018 to 0.02 µg/mL. Besides, the LC0 result in series [4] (chinook salmon) was “about 16 μg/l”. Further, the “activity relative to the dichloro-compounds” value in series [5] was “about 100 times”. In [2], the LC50 worked out at 0.008 µg/mL, the LC100 was about 11 µg/L and the toxicity to stickleback entry is “almost as toxic to stickleback as 2,2,2,1-tetrachloroethyl diethyl phosphate”.

On to `C=C(C)[C@H]1Cc2c(ccc3c2O[C@@H]2COc4cc(OC)c(OC)cc4[C@@H]2C3=O)O1` [rotenone], for which, in series [6] (background), the “control of sucker and stickleback numbers by spot poisoning” value is “ineffective in controlling sucker and stickleback numbers”.

For `CCOP(=O)(OCC)OC(Cl)CCl` (stereo not shown) [1,2-dichloroethyl diethyl phosphate], in series [7], the “activity and selectivity of the two chemicals” value was “very similar”; the “concentration of 100% mortality of sucker” value turned out to be 0.1 mg/L; the “concentration of almost 100% mortality of sucker” value stood at 0.3 mg/L. Further, in series [8], the “concentration below which almost no mortality occurred in trout” value is on record as “below 3.0 mg/l” and the “concentration below which no mortality occurred in steelhead” value is “below 5.0 mg/l”. The “selectivity/specificity for sucker and stickleback” value in [5] is “extremely selective for suckers and stickleback”. The harm to salmonids entry in [9] (in vivo) was “harmless to salmonids”. In [10], the safety index was 10 and the selectivity index was 35.

As to `COP(=O)(OC)OC=C(Cl)Cl` [O,O-dimethyl O-(2,2-dichlorovinyl) phosphate], the carcinogenicity / residues entry in [11] was “none suggest that DDVP is a carcinogen or concentrates residues”. For the same molecule, the injury to carp entry in series [12] is reported as “without injuring carp”. In addition, in series [6] (in vivo), the “selectivity for stickleback or suckers” value is “no selectivity for stickleback or suckers”.

As for “O,O-diethyl S-(2,2-dichlorovinyl) thiophosphate”, in series [7], the “activity and selectivity of the two chemicals” value was “very similar”; the “concentration of 100% mortality of sucker” value was 0.1 mg/L. Further, the “concentration below which no mortality occurred in steelhead” value in [8] is reported as “below 1.0 mg/l”. In series [5], the “selectivity/specificity for sucker and stickleback” value was “extremely selective for suckers and stickleback”. In addition, in series [9] (24-hour bioassays, about 15 C), the harm to salmonids result is on record as “harmless to salmonids”.
